Key:
[1] = system: receptors, transporters and some ion channels; assay: PDSP primary radioligand binding panel; settings: 10 μM, >50% inhibition considered significant
Excerpt: […]. […] […]. […] […].

[2] = target: 5HT2B receptor (Homo sapiens (Human), UniProt P41595); assay: HTRF IP1 accumulation assay (Eurofins Cerep); format: cell-based
[3] = target: T1, D3R (Homo sapiens (Human), UniProt P35462); assay: BRET arrestin recruitment assay; format: cell-based; settings: orthogonal assay
[4] = system: TA100; assay: Ames reverse mutation assay; format: cell-based; settings: highest conc. tested 2,000 μg/ml
Procedure: (§1) […]. The cultures were then diluted into an indicator medium lacking histidine, dispensed into a 384-well plate, and incubated for 48 h at 37° C. Cells that have undergone a reversion will grow, resulting in a color change. The number of wells showing growth were counted and compared to the vehicle control. […]. Data were analyzed using an unpaired, one-sided Student's T-test. Where indicated, S9 fraction from the livers of Aroclor 1254-treated rats were included in the incubation at a 4.5% final concentration. An NADPH-regenerating system was also included to ensure a steady supply of reducing equivalents.

[5] = system: TA98; assay: Ames reverse mutation assay; format: cell-based; settings: highest conc. tested 2,000 μg/ml
Procedure: as §1

[6] = target: panel of 168 GPCRs (Homo sapiens, UniProt P61073); format: cell-based; settings: GPCR CXCR4; agonist, 10 μM
[7] = target: panel of 168 GPCRs (Homo sapiens, UniProt P32248); format: cell-based; settings: GPCR CCR7; agonist, 10 μM
Chain of panel of 168 GPCRs (Homo sapiens, UniProt P32248) (P32248 25-378 limits assumed): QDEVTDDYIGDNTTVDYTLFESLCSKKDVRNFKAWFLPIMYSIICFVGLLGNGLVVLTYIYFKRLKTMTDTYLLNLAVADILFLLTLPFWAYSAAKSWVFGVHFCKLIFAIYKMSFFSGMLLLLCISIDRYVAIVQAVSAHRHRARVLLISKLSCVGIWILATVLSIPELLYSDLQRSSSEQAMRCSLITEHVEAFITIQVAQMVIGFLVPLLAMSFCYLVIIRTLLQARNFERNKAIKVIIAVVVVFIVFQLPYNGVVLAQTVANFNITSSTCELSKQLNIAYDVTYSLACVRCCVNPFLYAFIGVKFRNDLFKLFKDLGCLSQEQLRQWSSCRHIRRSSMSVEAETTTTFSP

[8] = target: T1, D3R; assay: Go BRET activation assay; format: cell-based; settings: orthogonal assay
[9] = target: T2, D3R Y198A (Homo sapiens (Human), UniProt P35462, Y198A); assay: Go BRET assay, mutagenesis; format: cell-based
T2 sequence (P35462 whole entry Y198A): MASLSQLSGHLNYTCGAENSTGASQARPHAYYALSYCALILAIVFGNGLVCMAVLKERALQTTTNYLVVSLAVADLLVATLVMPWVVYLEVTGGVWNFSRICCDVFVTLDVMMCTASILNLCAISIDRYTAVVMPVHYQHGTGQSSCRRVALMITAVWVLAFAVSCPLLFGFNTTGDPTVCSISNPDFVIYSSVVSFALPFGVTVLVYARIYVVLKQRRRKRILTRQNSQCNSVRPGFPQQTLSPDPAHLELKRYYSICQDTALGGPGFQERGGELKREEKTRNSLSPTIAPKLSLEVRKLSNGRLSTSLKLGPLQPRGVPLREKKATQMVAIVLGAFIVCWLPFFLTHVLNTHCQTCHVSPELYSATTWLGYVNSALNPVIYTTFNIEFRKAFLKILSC
Excerpt: (§2) Go BRET activation assay. […].
(§3) […]. […] […]. The Y365A mutation had more dramatic effects. […].

[10] = target: T3, D3R Y365A (Homo sapiens (Human), UniProt P35462, Y365A); assay: Go BRET assay, mutagenesis; format: cell-based
T3 sequence (P35462 whole entry Y365A): as the sequence (P35462 whole entry Y198A) above, with A198Y, Y365A counted along it
Excerpt: as §2, §3

[11] = Cytotoxicity screening panel, High Content Screening; format: cell-based; settings: human, HepG2 cells; Mitochondrial Membrane Potential, response direction ↓
Procedure: (§4) HepG2 cells were plated on 384-well tissue culture treated black walled clear bottomed polystyrene plates. The cells were dosed with test compound at a range of concentrations. At the end of the incubation period, the cells were loaded with the relevant dye/antibody for each cell health marker. The plates were then scanned using an automated fluorescent cellular imager, ArrayScan® (Thermo Scientific Cellomics). Cytotoxicity was assessed using a multi-parametric approach using High Content Screening (HCS). The following parameters were screened.
(§5) Nuclear size: An increase in nuclear area can indicate necrosis or G2 cell cycle arrest and a decrease can indicate apoptosis.
(§6) DNA structure: An increase in DNA structure can indicate chromosomal instability and DNA fragmentation.
(§7) Cell membrane permeability: An increase in cell membrane permeability is a general indicator of cell death.
(§8) Mitochondrial mass: A decrease in mitochondrial mass indicates loss of total mitochondria and an increase implies mitochondrial swelling or an adaptive response to cellular energy demands.
(§9) Mitochondrial membrane potential (Δψm): A decrease indicates a loss of mitochondrial membrane potential and mitochondrial toxicity, as well as a potential role in apoptosis signaling, an increase in mitochondrial membrane potential indicates an adaptive response to cellular energy demands.
(§10) Cytochrome c: An increase in cytochrome c release is one of the hallmarks of the apoptosis cascade.

[12] = system: HepG2 cells; assay: as above; format: cell-based
Procedure: as §4, §5, §6, §7, §8, §9, §10

[13] = target: D2 DAR (Homo sapiens (Human), UniProt P14416); assay: [35S]GTPγS binding assay; format: biochemical; settings: % maximum dopamine response
Chain of D2 DAR (P14416 whole entry): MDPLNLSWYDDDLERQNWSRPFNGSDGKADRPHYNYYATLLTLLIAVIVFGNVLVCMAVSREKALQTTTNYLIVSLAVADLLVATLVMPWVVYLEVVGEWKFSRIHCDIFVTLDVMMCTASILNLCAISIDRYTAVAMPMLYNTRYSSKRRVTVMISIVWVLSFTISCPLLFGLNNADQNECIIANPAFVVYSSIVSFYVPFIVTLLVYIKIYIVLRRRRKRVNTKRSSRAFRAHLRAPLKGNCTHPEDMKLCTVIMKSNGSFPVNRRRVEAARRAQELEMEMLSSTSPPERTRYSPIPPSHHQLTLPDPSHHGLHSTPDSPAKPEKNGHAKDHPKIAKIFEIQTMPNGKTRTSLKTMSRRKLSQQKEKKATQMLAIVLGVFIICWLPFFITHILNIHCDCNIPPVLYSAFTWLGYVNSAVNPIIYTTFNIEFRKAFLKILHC
Excerpt: A [^35S]GTPγS (Perkin Elmer NEG030H) binding assay was utilized as described in the protocol below (Table 7).

[14] = target: D3 DAR (Homo sapiens (Human), UniProt P35462); format: cell-based; settings: β-arrestin recruitment, agonist
Chain of D3 DAR (P35462 whole entry): as the sequence (P35462 whole entry Y198A) above, with A198Y counted along it

[15] = target: T2, D3R Y198A; assay: arrestin BRET assay, mutagenesis; format: cell-based
Procedure: (§11) BRET arrestin recruitment assay. As an orthogonal test using an unrelated assay of D3R-mediated β-arrestin recruitment, an arrestin BRET assay was conducted.
as §3

[16] = target: T3, D3R Y365A; assay: arrestin BRET assay, mutagenesis; format: cell-based; settings: Y365A mutation
Procedure: as §11, §3

[17] = Cell Membrane Permeability, response direction ↑
[18] = Cytochrome c, response direction ↑
[19] = DNA Structure, response direction ↑
[20] = Mitochondrial Mass, response direction ↑
[21] = Nuclear Size, response direction ↑
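For β-Arrestin Recruitment activity in this document: recruitment activity reported in % for each GPCR in the panel.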

T1 sequence (P35462 whole entry): as the sequence (P35462 whole entry Y198A) above, with A198Y counted along it
Chain of 5HT2B receptor (P41595 whole entry): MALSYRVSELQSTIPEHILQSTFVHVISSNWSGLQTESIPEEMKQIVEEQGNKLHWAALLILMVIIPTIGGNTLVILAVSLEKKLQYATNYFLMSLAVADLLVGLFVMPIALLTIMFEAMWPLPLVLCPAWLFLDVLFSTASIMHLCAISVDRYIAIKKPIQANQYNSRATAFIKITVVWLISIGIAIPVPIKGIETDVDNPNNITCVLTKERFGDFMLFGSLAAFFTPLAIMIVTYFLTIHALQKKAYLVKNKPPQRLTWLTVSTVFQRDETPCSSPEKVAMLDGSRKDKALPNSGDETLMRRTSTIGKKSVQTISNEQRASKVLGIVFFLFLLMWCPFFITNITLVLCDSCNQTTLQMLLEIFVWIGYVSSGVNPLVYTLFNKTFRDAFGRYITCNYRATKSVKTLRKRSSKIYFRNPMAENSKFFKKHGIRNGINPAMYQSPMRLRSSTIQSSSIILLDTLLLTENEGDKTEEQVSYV

## COc1ccc(OCCN2CCN(C(=O)c3cc4ccccc4[nH]3)CC2)cc1 [Compound 1, (1H-indol-2-yl)(4-(2-(4-methoxyphenoxy)ethyl)piperazin-1-yl)methanone]
[1]
  affinity in primary binding panel: displays affinity for only the D3R, 5-HT1A, 5-HT2B, and Sigmal receptor
[2]; read-out: inhibition of response elicited by serotonin
  inhibition at 10 µM: 80%
[2]; single high concentration of 10 μM
  agonist activity, IP1 accumulation: No agonist activity was found
[3]
  agonist activity, β-arrestin recruitment (BRET): potent and fully efficacious D3R-selective agonist
[4]; TA100, S9 No
  AMES Result: Negative
[4]; TA100, S9 Yes
  AMES Result: Negative
[5]; TA98, S9 No
  AMES Result: Negative
[5]; TA98, S9 Yes
  AMES Result: Negative
[6]
  β-Arrestin Recruitment activity: 17%
[7]
  β-Arrestin Recruitment activity: 4%
[8]
  agonist activity, G-protein mediated signaling (Go BRET): potent and fully efficacious D3R-selective agonist
[9]
  effect of mutation on potency: minimal effects on the potency
[9]; Y198A mutation
  signaling efficacy, % that of dopamine: 64%
[10]
  effect of mutation on efficacy: appeared to be unaffected
[10]; Y365A mutation
  potency reduction: 25,000 fold
[11]
  AC50: > 50 µM
[12]; [17]
  AC50: > 50 µM
  MEC: 8.58 µM
[12]; [18]
  AC50: > 50 µM
  MEC: 6.03 µM
[12]; [19]
  AC50: > 50 µM
  MEC: 13.9 µM
[12]; [20]
  AC50: > 50 µM
  MEC: 11.9 µM
[12]; Mitochondrial Membrane Potential, response direction ↓
  MEC: 9.28 µM
[12]; [21]
  AC50: > 50 µM
  MEC: 12.0 µM
[13]
  activation of the D2 DAR, [35S]GTPγS binding: not to activate the D2 DAR
[14]
  EC50: 0.036 µM
[15]
  effect of mutation on potency: minimal effects on the potency
[15]; Y198A mutation
  signaling efficacy, % that of dopamine: 36%
[16]
  efficacy, % that of dopamine: 210%
  potency reduction: 440 fold

From patent US11634404B2 (priority 2016, dated 2023)
